The source of these data is patent publication US10941107B2, “Prodrugs of gamma-hydroxybutyric acid, compositions and uses thereof” (XW LABORATORIES INC., priority 2015, dated 2021).

As usually defined, the half-life is the time needed for the level to fall by half in the phase considered. As a reminder, the AUC(0-t) is exposure summed from dosing to a finite time, without extrapolation to infinity. The term bioavailability denotes the share of a dose that reaches the circulation, judged against a reference dose that is usually intravenous. For orientation: Cmax means the peak of the concentration-time curve. Usually Tmax stands for the time at which the peak concentration occurs.

Each structure is given as a SMILES string. Where a name gives a salt, the structure may show the parent alone. Read-outs that look alike come from different tables or passages of the source. Where only a bound is given, the exact number is not on record here.

Data set [1] can be described thus: Rat liver S9 fractions metabolic stability assay. Conditions: both, pooled liver S9 fractions.
The conditions of data set [2]: both, human, pooled liver S9 fractions.
A short description of data set [3]: Human hepatocytes metabolic stability assay. In kind it is in vitro ADME. Conditions: both sexes, cryopreserved hepatocytes; human hepatocytes 1×10^6 viable cells/mL. As for the experimental part:
(§1) Rat/Human Hepatocytes Metabolic Stability Assay
(§2) 2) 30 mM stock solutions of test compounds were prepared in DMSO. Thawing medium and supplement incubation medium (serum-free) were placed in a 37° C. water bath for at least 15 minutes prior to use. Stock solutions were diluted to 500 μM by combining 295 μL acetonitrile and 5 μL of 30 mM stock solution. 3) Vials of cryopreserved hepatocytes were removed from storage, ensured that vials remain at cryogenic temperatures. The pressure was removed by loosening and re-tightening the cap. The vials were thawed in a 37° C. water bath with gently shaking. Vials were kept in water bath until all ice crystals had dissolved and were no longer visible. Vials were sprayed with 70% ethanol before being transferred to a biosafety cabinet. And then the contents were poured into the 50 mL thawing medium conical tube. Vials were centrifuged at 100 g for 10 minutes at room temperature. Thawing medium was aspirated and hepatocytes were resuspended with serum-free incubation medium to yield ˜1.5×10^6 cells/mL. 4) Cell viability and density were counted using a Trypan Blue exclusion, and then cells were diluted with serum-free incubation medium to a working cell density of 1×10^6 viable cells/ml. 5) A portion of the hepatocytes at 1×10^6 viable cells/mL was boiled for 10 min prior to adding to the plate as negative control to eliminate the enzymatic activity so that little or no substrate turnover should be observed. The inactivated hepatocytes were used to prepare negative samples, which were used to exclude the misleading factor that resulted from instability of chemical itself 6) Aliquots of 247.5 μL hepatocytes were dispensed into each well of a 96-well non-coated plate. The plate was placed in the incubator on an orbital shaker at 500 rpm for approximately 10 minutes. 7) Aliquots of 2.5 μL of the 500 μM test compounds were added into respective wells of the non-coated 96-well plate to start the reaction. This assay was performed in duplicate. The plate was incubated in the incubator on an orbital shaker at 500 rpm for the designed time points. […]

Data set [4] is described as follows: Rat hepatocytes metabolic stability assay. The format is in vitro ADME. Conditions: male, cryopreserved hepatocytes; rat hepatocytes 1×10^6 viable cells/mL. As for the experimental part: as §1, §2
Data set [5] is described as follows: Dog pharmacokinetic study. In kind it is in vivo, male Beagle dogs. The conditions noted are these: male, Beagle, plasma, IV. The text has this:
For dog pharmacokinetic studies, male Beagle dogs were housed individually. Dogs in oral administration groups were fasted overnight before use but with free access to water supply. Dogs in IV groups have free access to food and water. […]

The conditions of data set [6]: background statement; cited from earlier work.
The conditions of data set [7]: background statement; cited from earlier work. This is another data set of the same source.
Data set [8] can be described thus: Rat pharmacokinetic study. The conditions noted are these: male, Sprague-Dawley, plasma, 50 mg/kg.

Turning to `O=C(O)CCCOC(=O)Oc1ccccc1` [Compound 32, 4-(phenoxycarbonyloxy)butanoic acid], the half-life at 5 μM in data set [1] was found to be 8.5 min; in data set [2], 40.4 min.
Consider `CC(C)[C@H](N)C(=O)OCCCC(=O)O` [Compound 58, (S)-4-(2-amino-3-methylbutanoyloxy)butanoic acid], for which the half-life at 5 μM in data set [3] was determined as 160 min; in data set [4] it was 46.7 min.
Turning to `CC(C)C(=O)NCC(=O)OCCCC(=O)O` [Compound 64, 4-(2-isobutyramidoacetoxy)butanoic acid], the half-life at 5 μM in data set [1] stood at 62.7 min; in data set [2], 58 min.
`CC(=O)NCC(=O)OCCCC(=O)O` [Compound 66, 4-(2-acetamidoacetoxy)butanoic Acid]: the half-life at 5 μM amounted to 24.9 min in data set [3], 16.7 min in data set [4], 8 min in data set [1] and 9.21 min in data set [2].
For `CC(=O)N[C@H](C(=O)OCCCC(=O)O)C(C)C` [Compound 67, (S)-4-(2-acetamido-3-methylbutanoyloxy)butanoic acid], the half-life at 5 μM in data set [3] was determined as 220 min; in data set [4] it was 131 min; in data set [1] it was 74.2 min; in data set [2] it was 83.2 min.
On to `CC(OC(=O)OCCCC(=O)O)OC(=O)c1ccccc1` (stereo not shown) [Compound 89, 4-(1-(benzoyloxy)ethoxycarbonyloxy)butanoic Acid], for which the half-life at 5 μM is 17.5 min in data set [1] and 10.5 min in data set [2].
Take `O=C(O)CCCO` [GHB sodium salt]: the AUC(0-t) in data set [5] (GHB sodium salt 20 mg/kg) is 35700 ng·h/mL. In addition, the bioavailability in data set [5] (GHB sodium salt 20 mg/kg (reference), read-out: Bioavailability F (%)) stood at 100%. In data set [6], the “reduction of the total number of cataplexy episodes” value is around 70%. Besides, the “plasma half-life (t1/2)” value in data set [7] is below 60 min. Moreover, in data set [8] (iv), the area under the curve AUC(0-t) amounted to 25900 ng·h/mL and the bioavailability came out at 100%. Also, in data set [8] (po), the area under the curve AUC(0-t) is 6700 ng·h/mL, the peak level (Cmax) was 7600 ng/mL, the time to peak (Tmax) was 17 min and the bioavailability was 26%.
Regarding `Cl.N[C@@H](Cc1ccccc1)C(=O)OCCCC(=O)O` [hydrochloride salt of Compound 57, (S)-4-(2-amino-3-phenylpropanoyloxy)butanoic acid hydrochloride], the half-life at 5 μM in data set [1] stood at 2.48 min; in data set [2], 2.15 min.
